Columns and labels:
Format in all cases: functional, cell-based
A549 = assay: Antiproliferative activity against human A549 cells after 72 hrs by ATPlite assay; conditions: A549, 72 h
A-375 = assay: Antiproliferative activity against human A375 cells after 72 hrs by ATPlite assay; conditions: A-375, 72 h
[1] = Antiproliferative activity against human HCT116 cells after 72 hrs by ATPlite assay; conditions: HCT-116, 72 h
[2] = Antiproliferative activity against human NAMALWA cells after 72 hrs by ATPlite assay; conditions: NAMALVA

Structure (SMILES) | IC50 (A549) | IC50 (A-375) | IC50 [1] | IC50 [2]
COc1ccc2c3c(c4cc(OC)c(OC)cc4c2c1)C[C@H]1CCCN1C3 [(-)-ANTOFINE] | 10 nM | – | – | –
COc1ccc2c3c(c4cc(OC)c(OC)cc4c2c1)C[C@H]1CCCCN1C3 [CRYPTOPLEURINE] | – | 1.2 nM | 0.7 nM | 2.6 nM
COc1cc2c3c(c4ccc(O)cc4c2cc1OC)CN1CCCC[C@@H]1[C@@H]3O | 1.4 nM | 0.3 nM | 0.3 nM | 1.1 nM

Further lines, with some results ahead:

IC50 (A549) | IC50 (A-375) | Structure (SMILES) | IC50 [1] | IC50 [2]
2.5 nM | 1.6 nM | COc1cc2c3c(c4ccc(O)cc4c2cc1OC)CN1CCCC[C@@H]1C3 | 1.4 nM | 4.1 nM
1 nM | – | COc1cc2c3c(c4ccc(O)cc4c2cc1OC)CN1CCC[C@@H]1C3 | – | –
65 nM | 56 nM | COc1cc2c3c(c4ccc(O)cc4c2cc1OC)CN1CCCC[C@@H]1C3=O | 21 nM | 60 nM
